ChEMBL document CHEMBL1135525, “Probing the ATP ribose-binding domain of cyclin-dependent kinases 1 and 2 with O(6)-substituted guanine derivatives” (J Med Chem, 2002)

What was measured:
[1] = system: MCF7; assay: Inhibition of MCF-7 human breast carcinoma cell proliferation; assay type: functional
[2] = target: T1, Cyclin-dependent kinase 2/cyclin A (Homo sapiens) (UniProt P24941+P20248+P78396); assay: Inhibition of human Cyclin-dependent kinase 2-cyclin A at a concentration of 10 uM; assay type: protein-complex assay
[3] = target: T2, Cyclin-dependent kinase 1/cyclin B1 (Homo sapiens, UniProt P06493+P14635); assay: Inhibition of starfish oocyte (Marthasteria glacialis) Cyclin-dependent kinase 1-cyclin B1 at a concentration of 10 uM; assay type: protein-complex assay; conditions: Asteroidea
Target sequence in this assay (P06493 whole entry, looked up): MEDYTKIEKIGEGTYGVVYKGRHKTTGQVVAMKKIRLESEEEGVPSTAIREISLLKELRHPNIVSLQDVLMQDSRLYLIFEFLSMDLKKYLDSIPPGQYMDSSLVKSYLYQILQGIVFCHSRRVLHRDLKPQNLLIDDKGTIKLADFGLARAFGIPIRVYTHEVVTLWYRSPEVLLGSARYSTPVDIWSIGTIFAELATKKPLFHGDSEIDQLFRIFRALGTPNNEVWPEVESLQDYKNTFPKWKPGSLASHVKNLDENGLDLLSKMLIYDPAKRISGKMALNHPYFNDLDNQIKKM
Target sequence in this assay (P14635 whole entry, looked up): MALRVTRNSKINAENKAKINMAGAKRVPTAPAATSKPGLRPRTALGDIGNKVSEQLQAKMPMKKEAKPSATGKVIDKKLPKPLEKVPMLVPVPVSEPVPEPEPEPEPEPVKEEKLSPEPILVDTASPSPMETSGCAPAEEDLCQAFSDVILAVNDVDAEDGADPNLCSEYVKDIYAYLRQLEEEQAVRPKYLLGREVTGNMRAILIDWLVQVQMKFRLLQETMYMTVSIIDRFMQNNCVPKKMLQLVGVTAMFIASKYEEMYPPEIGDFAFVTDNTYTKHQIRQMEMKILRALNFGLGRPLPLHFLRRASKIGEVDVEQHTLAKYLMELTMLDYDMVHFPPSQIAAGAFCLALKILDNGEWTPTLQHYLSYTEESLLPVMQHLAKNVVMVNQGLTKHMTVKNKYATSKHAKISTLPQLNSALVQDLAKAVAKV

[4] = target: T2, Cyclin-dependent kinase 1/cyclin B1; assay: Inhibition of starfish oocyte (Marthasteria glacialis) Cyclin-dependent kinase 1-cyclin B1 at a concentration of 100 uM; assay type: protein-complex assay; conditions: Asteroidea
Target sequence in this assay (P06493 whole entry, looked up): as the sequence (P06493 whole entry, looked up) above
Target sequence in this assay (P14635 whole entry, looked up): as the sequence (P14635 whole entry, looked up) above

[5] = target: T1, Cyclin-dependent kinase 2/cyclin A (Homo sapiens); assay: Inhibition of human Cyclin-dependent kinase 2-cyclin A3 at a concentration of 100 uM; assay type: protein-complex assay
[6] = target: T3, Cyclin-dependent kinase 2/cyclin A (Homo sapiens, UniProt P24941); assay: Inhibition of human Cyclin-dependent kinase 2-cyclin A; assay type: protein-complex assay
[7] = target: T1, Cyclin-dependent kinase 2/cyclin A (Homo sapiens); assay: Inhibition of human Cyclin-dependent kinase 2-cyclin A at a concentration of 100 uM; assay type: protein-complex assay
[8] = target: T1, Cyclin-dependent kinase 2/cyclin A (Homo sapiens); assay: Inhibition of Cyclin-dependent kinase 2-cyclin A at 10 uM; assay type: protein-complex assay
[9] = target: T3, Cyclin-dependent kinase 2/cyclin A; assay: Inhibition of human Cyclin-dependent kinase 2-cyclin A3; assay type: protein-complex assay
[10] = target: T1, Cyclin-dependent kinase 2/cyclin A (Homo sapiens); assay: Inhibition of human Cyclin-dependent kinase 2-cyclin A at 100 uM; assay type: protein-complex assay
[11] = target: T1, Cyclin-dependent kinase 2/cyclin A (Homo sapiens); assay: Inhibition of human Cyclin-dependent kinase 2-cyclin A3 at 100 uM; assay type: protein-complex assay
[12] = target: T2, Cyclin-dependent kinase 1/cyclin B1; assay: Inhibition of starfish oocyte (Marthasteria glacialis) Cyclin-dependent kinase 1-cyclin B1; assay type: protein-complex assay, Asteroidea
Target sequence in this assay (P06493 whole entry): as the sequence (P06493 whole entry, looked up) above
Target sequence in this assay (P14635 whole entry): as the sequence (P14635 whole entry, looked up) above

[13] = target: T1, Cyclin-dependent kinase 2/cyclin A (Homo sapiens); assay: Inhibition of Cyclin-dependent kinase 2-cyclin A at 100 uM; assay type: protein-complex assay

Row | SMILES | inhibition [4] | IC50 [6] | other results
1 | Nc1nc(OCC2CCCCC2)c2nc[nH]c2n1 |  |  | GI50 [1]: 20 µM
2 | Nc1nc(OCC23CC4CC(CC(C4)C2)C3)c2nc[nH]c2n1 |  |  | inhibition [2]: 29%; inhibition [3]: 55%
3 | Nc1nc(OCC2CCNCC2)c2nc[nH]c2n1 | 52% |  | inhibition [5]: 43%
4 | C=CCCCCOc1nc(N)nc2[nH]cnc12 |  | 47 µM | 
5 | Nc1nc(OCc2cccc3ccccc23)c2nc[nH]c2n1 |  |  | inhibition [2]: 3%; inhibition [3]: 10%
6 | CCC(C)Oc1nc(N)nc2[nH]cnc12 (stereo not drawn) |  | 25 µM | 
7 | CC(C)Oc1[nH]c(N)nc2ncnc1-2 |  | 75 µM | 
8 | CC(C)COc1nc(N)nc2[nH]cnc12 |  | 42 µM | 
9 | C=CCOc1nc(N)nc2nc[nH]c12 |  | 78 µM | 
10 | C=C(C)COc1nc(N)nc2nc[nH]c12 |  | 35 µM | 
11 | C=C(CC)COc1nc(N)nc2[nH]cnc12 |  | 21 µM | 
12 | CC1(C)OC2OC(COc3nc(N)nc4[nH]cnc34)C3OC(C)(C)OC3C2O1 (stereo not drawn) | 10% |  | inhibition [5]: 4%
13 | CCOc1nc(N)nc2[nH]cnc12 | 48% |  | inhibition [7]: 51%
14 | Nc1nc(OC[C@@H]2CCC(=O)N2)c2nc[nH]c2n1 | 22% |  | inhibition [5]: 15%
15 | CCOC.CCOC(C)COc1[nH]c(N)nc2ncnc1-2 (stereo not drawn) |  | 33 µM | 
16 | Nc1nc(OCC=C2CCCCC2)c2nc[nH]c2n1 |  |  | inhibition [2]: 12%; inhibition [3]: 21%
17 | Nc1nc(OCCc2ccccc2)c2nc[nH]c2n1 |  | 65 µM | 
18 | CC(=O)COc1nc(N)nc2[nH]cnc12 | 15% |  | inhibition [7]: 16%
19 | Nc1nc(OCc2ccccn2)c2nc[nH]c2n1 | 58% |  | inhibition [5]: 43%
20 | Nc1nc(OCC(O)CO)c2nc[nH]c2n1 (stereo not drawn) | 35% |  | inhibition [7]: 33%

Row | SMILES | inhibition [4] | IC50 [6] | other results
21 | Nc1nc(OCC2=CCCC2)c2[nH]cnc2n1 |  | 31 µM | 
22 | Nc1nc(OCCC2CCCCC2)c2nc[nH]c2n1 |  | 44 µM | 
23 | CC1(C)OC[C@@H](COc2nc(N)nc3[nH]cnc23)O1 | 46% |  | inhibition [5]: 39%
24 | Nc1nc(OCC2CCCNC2)c2nc[nH]c2n1 (stereo not drawn) | 70% |  | inhibition [5]: 64%
25 | COc1cccc(COc2nc(N)nc3[nH]cnc23)c1 | 65% |  | inhibition [8]: 49%
26 | Nc1nc(OCc2ccccc2)c2[nH]cnc2n1 [6-O-BENZYLGUANINE] |  | 35 µM | 
27 | CC(C)C1(COc2nc(N)nc3[nH]cnc23)OCCO1 |  |  | IC50 [9]: 65 µM
28 | C#CCOc1nc(N)nc2nc[nH]c12 |  | 90 µM | 
29 | Nc1nc(OCC2=CCCCC2)c2[nH]cnc2n1 |  | 22 µM | 
30 | Nc1nc(OC[C@H]2CCC(=O)N2)c2nc[nH]c2n1 | 50% |  | inhibition [5]: 35%
31 | Cc1cccc(COc2nc(N)nc3nc[nH]c23)c1 | 70% |  | inhibition [10]: 52%
32 | CC1(C)OC[C@H](COc2nc(N)nc3[nH]cnc23)O1 | 31% |  | inhibition [5]: 27%
33 | Nc1nc(OCc2cccc(Cl)c2)c2nc[nH]c2n1 |  |  | inhibition [8]: 19%; inhibition [3]: 28%
34 | Nc1nc(OCC2CCCCO2)c2nc[nH]c2n1 (stereo not drawn) | 50% |  | inhibition [11]: 43%
35 | COc1nc(N)nc2nc[nH]c12 | 36% |  | inhibition [7]: 35%
36 | Nc1nc(OCC2CC=CCC2)c2[nH]cnc2n1 (stereo not drawn) |  | 13 µM | GI50 [1]: 37 µM
37 | C=C(COc1nc(N)nc2nc[nH]c12)c1ccccc1 |  | 34 µM | GI50 [1]: 28 µM
38 | C=C(COc1nc(N)nc2[nH]cnc12)C(C)C |  | 16 µM | 
39 | CC(C)CCOc1nc(N)nc2nc[nH]c12 |  | 26 µM | 
40 | Nc1nc(OCC2COC3(CCCCC3)O2)c2[nH]cnc2n1 (stereo not drawn) | 26% |  | inhibition [5]: 29%

Row | SMILES | inhibition [4] | IC50 [6] | other results
41 | Nc1nc(OCc2cccnc2)c2nc[nH]c2n1 | 55% |  | inhibition [5]: 43%
42 | CC(C)C(=O)COc1nc(N)nc2nc[nH]c12 | 41% |  | inhibition [7]: 31%
43 | COCC(COc1nc(N)nc2[nH]cnc12)OC (stereo not drawn) | 49% |  | inhibition [7]: 41%
44 | CC/C=C/CCOc1nc(N)nc2[nH]cnc12 |  | 69 µM | 
45 | CCCOc1nc(N)nc2nc[nH]c12 |  | 67 µM | 
46 | Nc1nc(OCC2CCCO2)c2[nH]cnc2n1 (stereo not drawn) | 49% |  | inhibition [7]: 40%
47 | CCCCOc1nc(N)nc2[nH]cnc12 |  | 48 µM | 
48 | C=C(C)[C@H]1CC=C(COc2nc(N)nc3[nH]cnc23)CC1 |  |  | inhibition [2]: 18%; inhibition [3]: 17%
49 | Nc1nc(OCC2CCCC2)c2nc[nH]c2n1 |  | 21 µM | 
50 | CC1(C)OCC(COc2nc(N)nc3[nH]cnc23)O1 (stereo not drawn) | 43% |  | inhibition [5]: 36%
51 | CCC(C)COc1nc(N)nc2nc[nH]c12 (stereo not drawn) |  | 15 µM | 
52 | COC1OC(COc2nc(N)nc3[nH]cnc23)C2OC(C)(C)OC12 (stereo not drawn) | 10% |  | GI50 [1]: > 100 µM; inhibition [5]: 16%
53 | Nc1nc(OCc2ccc3ccccc3c2)c2[nH]cnc2n1 |  |  | inhibition [2]: 9%; inhibition [3]: 12%
54 | CCCCCCCOc1nc(N)nc2[nH]cnc12 |  | > 100 µM | IC50 [12]: 62 µM
55 | Nc1nc(OCC2COc3ccccc3O2)c2nc[nH]c2n1 (stereo not drawn) | 52% |  | inhibition [5]: 52%
56 | Nc1cccc(COc2nc(N)nc3[nH]cnc23)c1 | 65% |  | inhibition [13]: 52%
57 | CCC(COc1nc(N)nc2[nH]cnc12)(OC)OC |  | 20 µM | IC50 [12]: 19 µM
58 | CCCCCOc1nc(N)nc2[nH]cnc12 |  | 49 µM | 
